{"source": "patent US20110002995A1", "about": "“PHARMACEUTICAL COMPOSITION FOR THE TREATMENT AND PREVENTION OF CARDIAC DISEASE” (MAZENCE INC., priority 2007, published 2011)", "key": {"[1]": {"test_system": "TAC-induced heart hypertrophy", "details": "FIG. 14", "source_text": "For the operation of TAC, C57BL/6 male mice were anesthetized with an intraperitoneal injection of a liquid anesthetic (ketamine:xylazine=20:1, kg/ml), and a 22-gauge IV catheter needle was placed into the trachea, followed by connection with a ventilator (Harvard Apparatus) for artificial forcible respiration. The thorax was incised and the thymus was removed. Following the removal of the thymus, the transverse aorta between the right subclavian artery and the left subclavian artery was banded (7-0, silk) with an overlaying blunted 27-gauge needle, and then the needle was quickly removed to create a defined constriction. The thorax was sutured with (5-0) silk to complete the surgery, and respiration of animals was then confirmed.\nA ratio of heart weight (HW) to body weight (BW) (HW/BW ratio) and a ratio of heart weight (HW) to tibia length (HW/TL ratio) were respectively estimated using echocardiogram.\n2 days after the operation of TAC, animals were orally given test samples for 2 weeks."}, "[2]": {"test_system": "TAC-induced heart failure", "test": "Inhibitory effect on heart failure, TAC model (Experimental Example 1)", "assay_type": "in vivo, C57BL/6J male mice", "description": "(§1) 8-week-old C57BL/6J male mice (n=40, 20-23 g, SLC, Japan) were purchased and subjected to transverse aortic constriction (TAC).\n(§2) The thorax was incised and the thymus was removed.\n(§3) 5 weeks after the operation of TAC for the heart failure model, a difference of a fractional shortening (F.S) value (%) with the control group was confirmed using echocardiogram, and the degree of heart failure induction and therapeutic effects were then determined.\n(§4) Further, left ventricular end-diastolic and systolic diameters were measured according to the standard method of the American Society for Echocardiography. Fractional shortening (%) which is an indicator of the ventricular contractility is calculated according to the following equation.\n(§5) F.S=(left ventricular end-diastolic diameter)−(left ventricular end-systolic diameter)/left ventricular end-diastolic diameter\n(§6) Among compounds of Formula 1, inhibitory effects of 7,8-dihydro-2,2-dimethyl-2H-naphtho(2,3-b)dihydropyran-7,8-dione (hereinafter, referred to as “MB660”) on heart hypertrophy and heart failure were examined.\n(§7) 2 days after TAC treatment, animals were given test samples. Induction of heart hypertrophy was carried out over 2 weeks after TAC treatment. Induction of heart failure was carried out over 5 weeks after TAC treatment."}, "[3]": {"test_system": "TAC-induced heart hypertrophy", "test": "Reversal of heart hypertrophy, TAC model (Experimental Example 2)", "assay_type": "in vivo, C57BL/6J male mice", "details": "150 mg/kg for 4 weeks, starting 2 weeks after TAC", "description": "as §1, §2, §3, §4, §5\n(§8) In order to measure effects of MB660 on the reversal of heart hypertrophy and heart failure, the experiment was carried out as follows.\n(§9) After induction of heart hypertrophy (2 weeks after TAC treatment) and heart failure (5 weeks after TAC treatment), animals were given test samples for 4 weeks."}, "[4]": {"test_system": "TAC-induced heart hypertrophy", "test": "Changes of heart size in heart hypertrophy model (Experimental Example 4)", "assay_type": "in vivo, C57BL/6J male mice", "details": "150 mg/kg orally for two weeks from one week after TAC, heart excised three weeks after TAC, FIG. 15", "from_the_text": "as §2\nIn order to examine changes of heart size in response to the administration of MB660, experimental animals were divided into four groups as given in Table 4 below:\nOne week after TAC treatment, animals were orally given MB660 for two weeks. Three weeks after TAC treatment, animals were sacrificed and the heart was excised, followed by size examination."}, "[5]": {"test_system": "TAC-induced heart hypertrophy", "test": "Inhibitory effect on heart hypertrophy, TAC model (Experimental Example 1)", "assay_type": "in vivo, C57BL/6J male mice", "description": "as §1, §2, §3, §4, §5, §6, §7"}, "[6]": {"test_system": "TAC-induced heart failure", "test": "Reversal of heart failure, TAC model (Experimental Example 2)", "assay_type": "in vivo, C57BL/6J male mice", "details": "150 mg/kg for 4 weeks, starting 5 weeks after TAC", "description": "as §1, §2, §3, §4, §5, §8, §9"}, "[7]": {"test_system": "cardiomyocytic mitochondria, TAC-induced heart hypertrophy", "test": "Mitochondrial changes of cardiomyocytes in heart hypertrophy model (Experimental Example 5)", "assay_type": "in vivo, C57BL/6J mice", "details": "orally for 4 weeks after induction of heart hypertrophy (2 weeks after TAC), transmission electron microscope, FIG. 16", "from_the_text": "(§10) Animals were orally given test samples for 4 weeks after induction of heart hypertrophy (2 weeks after TAC treatment) and heart failure (5 weeks after TAC treatment). The left ventricular myocardial tissues of animals were fixed in 2.5% glutaraldehyde to prepare tissue sections, and mitochondrial morphological changes were examined under a transmission electron microscope.\n(§11) In C57BL/6J mice with TAC-induced heart hypertrophy and heart failure, alterations in cardiomyocytic mitochondria in response to the administration of MB660 were observed."}, "[8]": {"test_system": "cardiomyocytic mitochondria, TAC-induced heart failure", "test": "Mitochondrial changes of cardiomyocytes in heart failure model (Experimental Example 5)", "assay_type": "in vivo, C57BL/6J mice", "details": "orally for 4 weeks after induction of heart failure (5 weeks after TAC), transmission electron microscope, FIG. 17", "from_the_text": "as §10, §11"}}, "data": [{"smiles": "CC1(C)CCc2cc3c(cc2O1)=CC(=O)C(=O)C=3", "note": "[MB660, 7,8-dihydro-2,2-dimethyl-2H-naphtho(2,3-b)dihydropyran-7,8-dione]", "values": [{"measurement": "HW/BW ratio vs control group (TAC)", "setting": "[1]; 30, 60, 100, 150 mg/kg orally for 2 weeks from 2 days after TAC", "value": "significant decrease"}, {"measurement": "HW/BW ratio, dependence on dose", "setting": "[1]; 30 to 150 mg/kg orally for 2 weeks", "value": "generally decreased with an increasing dose"}, {"measurement": "HW/BW ratio at 60 mg compared to the group with 30 mg", "setting": "[1]; orally for 2 weeks", "value": "increased"}, {"measurement": "HW/BW ratio vs non-MB660 treated group", "setting": "[2]; TAC MB(+), 150 mg/kg, given from 2 days after TAC, heart failure induced over 5 weeks, FIG. 4", "value": "significantly low values"}, {"measurement": "HW/TL ratio vs non-MB660 treated group", "setting": "[2]; TAC MB(+), 150 mg/kg, given from 2 days after TAC, heart failure induced over 5 weeks, FIG. 5", "value": "significantly low values"}, {"measurement": "fractional shortening vs non-MB660 treated group", "setting": "[2]; echocardiogram, heart failure-induced model", "value": "significantly increased"}, {"measurement": "HW/BW lower than the non-MB660 treated group", "setting": "[3]; FIG. 7", "value": "≥ 30", "unit": "%"}, {"measurement": "HW/BW value", "setting": "[3]; FIG. 7", "value": 6.23}, {"measurement": "HW/TL lower than the non-MB660 treated group", "setting": "[3]; FIG. 8", "value": "about 25%"}, {"measurement": "HW/TL value", "setting": "[3]; FIG. 8", "value": 7.68}, {"measurement": "fractional shortening vs non-MB660 treated group", "setting": "[3]; FIG. 9", "value": "significant increase"}, {"measurement": "heart size, TAC group vs non-administered TAC control", "setting": "[4]", "value": "significant decrease of the heart size"}, {"measurement": "HW/BW ratio vs non-MB660 treated TAC group", "setting": "[5]; TAC MB(+), 150 mg/kg, given from 2 days after TAC, hypertrophy induced over 2 weeks, FIG. 1", "value": "significantly low value of heart hypertrophy"}, {"measurement": "HW/TL ratio vs non-MB660 treated TAC group", "setting": "[5]; TAC MB(+), 150 mg/kg, given from 2 days after TAC, hypertrophy induced over 2 weeks, FIG. 2", "value": "significantly low value of heart hypertrophy"}, {"measurement": "fractional shortening vs non-MB660 treated group", "setting": "[5]; echocardiogram, heart hypertrophy-induced model, FIG. 3", "value": "significant increase"}, {"measurement": "HW/BW ratio vs control group", "setting": "[6]; FIG. 10", "value": "low values"}, {"measurement": "HW/TL ratio vs control group", "setting": "[6]; FIG. 11", "value": "low values"}, {"measurement": "fractional shortening vs control group", "setting": "[6]; FIG. 12", "value": "significant increase"}, {"measurement": "mitochondrial function/morphology of cardiomyocytes", "setting": "[7]", "value": "returned to the original condition"}, {"measurement": "mitochondrial function/morphology of cardiomyocytes", "setting": "[8]", "value": "returned to the original condition"}]}]}
